Data on two compounds can be found in PubChem BioAssay AID1259407 (Chemical Carcinogenesis Research Information System (CCRIS), 2018).

The data set concerns CCRIS mutagenicity, Ames/micronucleus/aberration tests. The data set is described as follows: CCRIS mutagenicity studies.

Calls of active or inactive are those of the source. How the calls were made is not given here.

As to `ClCC(Br)CBr` (stereo not given), the mutagenic call is, setting by setting: (End Point: IN VITRO CHROMOSOMAL ABERRATIONS, Test System: CHO CELLS, Metabolic Activation: NONE) “active; positive”; (End Point: IN VITRO CHROMOSOMAL ABERRATIONS, Test System: CHO CELLS, Metabolic Activation: RAT, LIVER, S-9, AROCLOR 1254) “active; positive”; (Test System: AMES SALMONELLA TYPHIMURIUM, Strain/Indicator: TA97, Metabolic Activation: HAMSTER, LIVER, S-9, AROCLOR 1254 (10%), Method: PREINCUBATION) “active; positive”; (Test System: AMES SALMONELLA TYPHIMURIUM, Strain/Indicator: TA97, Metabolic Activation: NONE, Method: PREINCUBATION) “inactive; negative”; (Test System: AMES SALMONELLA TYPHIMURIUM, Strain/Indicator: TA97, Metabolic Activation: RAT, LIVER, S-9, AROCLOR 1254 (10%), Method: PREINCUBATION) “active; positive”; (Test System: AMES SALMONELLA TYPHIMURIUM, Strain/Indicator: TA98, Metabolic Activation: HAMSTER, LIVER, S-9, AROCLOR 1254 (10%), Method: PREINCUBATION) “active; positive”. Also, the mutagenic call is “inactive; negative” (Test System: AMES SALMONELLA TYPHIMURIUM, Strain/Indicator: TA98, Metabolic Activation: NONE, Method: FLASK ASSAY); “inactive; negative” (Test System: AMES SALMONELLA TYPHIMURIUM, Strain/Indicator: TA98, Metabolic Activation: NONE, Method: PREINCUBATION); “inactive; negative” (Test System: AMES SALMONELLA TYPHIMURIUM, Strain/Indicator: TA98, Metabolic Activation: RAT, LIVER, S-9, AROCLOR 1254 (10%), Method: PREINCUBATION); “active; positive” (Test System: AMES SALMONELLA TYPHIMURIUM, Strain/Indicator: TA98, Metabolic Activation: RAT, LIVER, S-9, AROCLOR 1254, Method: FLASK ASSAY); “active; positive” (Test System: AMES SALMONELLA TYPHIMURIUM, Strain/Indicator: TA100, Metabolic Activation: HAMSTER, LIVER, S-9, AROCLOR 1254 (10%), Method: PREINCUBATION); “inactive; negative” (Test System: AMES SALMONELLA TYPHIMURIUM, Strain/Indicator: TA100, Metabolic Activation: NONE, Method: FLASK ASSAY). Also, the mutagenic call is “inactive; negative” (Test System: AMES SALMONELLA TYPHIMURIUM, Strain/Indicator: TA100, Metabolic Activation: NONE, Method: PREINCUBATION); “inactive; negative” (Test System: AMES SALMONELLA TYPHIMURIUM, Strain/Indicator: TA100, Metabolic Activation: NONE, Method: STANDARD PLATE); “inactive; negative” (Test System: AMES SALMONELLA TYPHIMURIUM, Strain/Indicator: TA100, Metabolic Activation: NONE, Method: SUSPENSION/PLATE); “inactive; negative” (Test System: AMES SALMONELLA TYPHIMURIUM, Strain/Indicator: TA100, Metabolic Activation: RAT TESTICULAR CELLS, Method: STANDARD PLATE); “active; positive” (Test System: AMES SALMONELLA TYPHIMURIUM, Strain/Indicator: TA100, Metabolic Activation: RAT, HEPATOCYTES, AROCLOR 1254, Method: STANDARD PLATE); “active; positive” (Test System: AMES SALMONELLA TYPHIMURIUM, Strain/Indicator: TA100, Metabolic Activation: RAT, HEPATOCYTES, Method: STANDARD PLATE). Besides, the mutagenic call reads like this: (Test System: AMES SALMONELLA TYPHIMURIUM, Strain/Indicator: TA100, Metabolic Activation: RAT, LIVER, HEPATOCYTES, Method: SUSPENSION/PLATE) “active; positive”; (Test System: AMES SALMONELLA TYPHIMURIUM, Strain/Indicator: TA100, Metabolic Activation: RAT, LIVER, MICROSOMES, AROCLOR 1254, Method: PREINCUBATION) “active; positive”; (Test System: AMES SALMONELLA TYPHIMURIUM, Strain/Indicator: TA100, Metabolic Activation: RAT, LIVER, MICROSOMES, PHENOBARBITAL, NADPH COFACTORS, Method: STANDARD PLATE) “active; positive”; (Test System: AMES SALMONELLA TYPHIMURIUM, Strain/Indicator: TA100, Metabolic Activation: RAT, LIVER, MICROSOMES, PHENOBARBITAL, Method: PREINCUBATION) “active; positive”; (Test System: AMES SALMONELLA TYPHIMURIUM, Strain/Indicator: TA100, Metabolic Activation: RAT, LIVER, MICROSOMES, PHENOBARBITAL, Method: STANDARD PLATE) “inactive; negative”; (Test System: AMES SALMONELLA TYPHIMURIUM, Strain/Indicator: TA100, Metabolic Activation: RAT, LIVER, MICROSOMES, Method: PREINCUBATION) “active; positive”. The mutagenic call (Test System: AMES SALMONELLA TYPHIMURIUM, Strain/Indicator: TA100, Metabolic Activation: RAT, LIVER, S-9, AROCLOR 1254 (10%), Method: PREINCUBATION) is “active; positive”; the mutagenic call (Test System: AMES SALMONELLA TYPHIMURIUM, Strain/Indicator: TA100, Metabolic Activation: RAT, LIVER, S-9, AROCLOR 1254, Method: FLASK ASSAY) is “active; positive”; the mutagenic call (Test System: AMES SALMONELLA TYPHIMURIUM, Strain/Indicator: TA100, Metabolic Activation: RAT,TESTICULAR CELLS, AROCLOR 1254, Method: STANDARD PLATE) is “inactive; negative”; the mutagenic call (Test System: AMES SALMONELLA TYPHIMURIUM, Strain/Indicator: TA100, Metabolic Activation: S-9 MIX, Method: STANDARD PLATE) is “active; positive”; the mutagenic call (Test System: AMES SALMONELLA TYPHIMURIUM, Strain/Indicator: TA1535, Metabolic Activation: HAMSTER, LIVER, S-9, AROCLOR 1254 (10%), Method: PREINCUBATION) was “active; positive”; the mutagenic call (Test System: AMES SALMONELLA TYPHIMURIUM, Strain/Indicator: TA1535, Metabolic Activation: NONE, Method: FLASK ASSAY) is “active; positive”. Besides, the mutagenic call is “inactive; negative” (Test System: AMES SALMONELLA TYPHIMURIUM, Strain/Indicator: TA1535, Metabolic Activation: NONE, Method: PREINCUBATION); “active; positive” (Test System: AMES SALMONELLA TYPHIMURIUM, Strain/Indicator: TA1535, Metabolic Activation: RAT, LIVER, S-9, AROCLOR 1254 (10%), Method: PREINCUBATION); “active; positive” (Test System: AMES SALMONELLA TYPHIMURIUM, Strain/Indicator: TA1535, Metabolic Activation: RAT, LIVER, S-9, AROCLOR 1254, Method: FLASK ASSAY); “inactive; negative” (Test System: AMES SALMONELLA TYPHIMURIUM, Strain/Indicator: TA1537, Metabolic Activation: HAMSTER, LIVER, S-9, AROCLOR 1254 (10%), Method: PREINCUBATION); “inactive; negative” (Test System: AMES SALMONELLA TYPHIMURIUM, Strain/Indicator: TA1537, Metabolic Activation: NONE, Method: FLASK ASSAY); “inactive; negative” (Test System: AMES SALMONELLA TYPHIMURIUM, Strain/Indicator: TA1537, Metabolic Activation: RAT, LIVER, S-9, AROCLOR 1254 (10%), Method: PREINCUBATION). For the same compound, the mutagenic call runs as follows: (Test System: AMES SALMONELLA TYPHIMURIUM, Strain/Indicator: TA1537, Metabolic Activation: RAT, LIVER, S-9, AROCLOR 1254, Method: FLASK ASSAY) “inactive; negative”; (Test System: AMES SALMONELLA TYPHIMURIUM, Strain/Indicator: TA1538, Metabolic Activation: NONE, Method: FLASK ASSAY) “inactive; negative”; (Test System: AMES SALMONELLA TYPHIMURIUM, Strain/Indicator: TA1538, Metabolic Activation: RAT, LIVER, S-9, AROCLOR 1254, Method: FLASK ASSAY) “inactive; negative”; (Test System: MOUSE LYMPHOMA, Strain/Indicator: L5178Y (TK+/TK-), Metabolic Activation: NONE, Method: SUSPENSION/PLATE) “active; positive”; (Test System: MOUSE LYMPHOMA, Strain/Indicator: L5178Y (TK+/TK-), Metabolic Activation: RAT, LIVER, S-9, AROCLOR 1254, Method: SUSPENSION/PLATE) “active; positive”; (Test System: UDS RODENT HEPATOCYTES, Strain/Indicator: THY INCORP (NON-S-PHASE), Metabolic Activation: AROCLOR 1254, Method: LIQUID SCINTILLATION COUNTING) “inactive; negative”. Where the note is “Test System: UDS RODENT HEPATOCYTES, Strain/Indicator: THY INCORP (NON-S-PHASE), Metabolic Activation: NONE, Method: LIQUID SCINTILLATION COUNTING”, the mutagenic call was “active; positive”.
Regarding `c1ccc2c(c1)c1ccccc1c1ccccc21`, the mutagenic call was “active; positive” (Test System: AMES SALMONELLA TYPHIMURIUM, Strain/Indicator: TA98, Metabolic Activation: RAT, LIVER, S-9, AROCLOR 1254, Method: FLUCTUATION) and “active; positive” (Test System: AMES SALMONELLA TYPHIMURIUM, Strain/Indicator: TA100, Metabolic Activation: RAT, LIVER, S-9, AROCLOR 1254, Method: STANDARD PLATE).
